According to US20260092086A1, “ANTIMICROBIAL LASSO PEPTIDES” (priority 2022, published 2026):
Values after ≈ are worked out from the molar mass of the structure shown. Where two headings read alike, the source gives them in different places. Where a SMILES comes first, the peptide text is derived from it.

Columns and labels:
Assay type in all cases: cell-based
[1] = test system: clinical isolates of Enterobacter; assay: Spot-on-lawn assay, panel of clinical isolates (Table 7)
Procedure: The type strain of Enterobacter cloacae (ATCC 13047) tested as discussed above was isolated from human cerebrospinal fluid in 1890^66 before the era of antibiotics. The activity of cloacaenodin was also tested against more recent clinical isolates. A panel of two (2) clinical isolates of Enterobacter using the spot-on-lawn assay was tested (Table 7).
Cloacaenodin was evaluated against several common laboratory strains as well as commercially acquired strains using a spot-on-lawn assay.^45 Strains were streaked out onto LB agar plates and incubated overnight at their recommended temperatures. A single colony was then used to inoculate an overnight culture in 5 mL of LB broth. After shaking at 250 rpm at the recommended temperature for each strain, 50 μL of the overnight culture was used to inoculate 5 mL of LB broth (volume ratio 1:100). These cultures were grown for a few hours until they reached the exponential phase (OD600˜0.4-0.6) before being added to 10 mL of soft M63 agar at a final cell density of 10^7 CFUs/mL, or 10^8 CFUs total in 10 mL. […] The plates were incubated overnight at the strains' recommended temperatures and analyzed the next morning for activity. […]

[2] = test system: Enterobacter nimipressuralis DSM 18955; assay: Spot-on-lawn assay in M63 agar
Procedure: (§1) Cloacaenodin was evaluated against several common laboratory strains as well as commercially acquired strains using a spot-on-lawn assay.^45 Strains were streaked out onto LB agar plates and incubated overnight at their recommended temperatures. A single colony was then used to inoculate an overnight culture in 5 mL of LB broth. After shaking at 250 rpm at the recommended temperature for each strain, 50 μL of the overnight culture was used to inoculate 5 mL of LB broth (volume ratio 1:100). These cultures were grown for a few hours until they reached the exponential phase (OD600˜0.4-0.6) before being added to 10 mL of soft M63 agar at a final cell density of 10^7 CFUs/mL, or 10^8 CFUs total in 10 mL. The M63 soft agar was composed of 2 g/L of (NH4)2SO4 (EMD MilliporeSigma), 13.6 g/L of KH2PO4 (Fisher), 40 mg/L of each of the 20 common amino acids, 0.2% glucose (Sigma), 0.00005% w/v thiamine hydrochloride (Sigma), and 0.65% w/v bacteriological-grade agar (Apex Bioresearch). […] Upon solidification, 10 μL of purified cloacaenodin in water at two-fold dilutions were then spotted onto the agar and allowed to dry. The plates were incubated overnight at the strains' recommended temperatures and analyzed the next morning for activity. The MIC is defined as the last dilution where a spot was visible.

[3] = test system: Salmonella enterica serovar Newport; assay: Spot-on-lawn assay in M63 agar; conditions: purified cloacaenodin in water
Procedure: as §1

[4] = test system: Klebsiella aerogenes ATCC 13048; assay: Spot-on-lawn assay in M63 agar; conditions: purified cloacaenodin in water
Procedure: as §1

[5] = test system: Enterobacter hormaechei ATCC 700323; assay: Spot-on-lawn assay in M63 agar; conditions: purified cloacaenodin in water
Procedure: as §1

[6] = test system: Enterobacter kobei BAA-260; assay: Spot-on-lawn assay in M63 agar; conditions: purified cloacaenodin in water
Procedure: as §1

[7] = test system: Enterobacter cloacae UCI102; assay: MIC in M63 media (liquid); conditions: clinical isolate Enterobacter cloacae UCI102
Procedure: For liquid inhibition assays, 5 mL LB broth was inoculated with 40-50 μL of an overnight culture of E. cloacae or E. amnigenus. […] The plate was shaken at 30° C. at 250 rpm for E. cloacae, and 37° C. at 250 rpm for E. amnigenus. The OD600 was measured at 8-hour and 16-hour increments. The MIC is defined as the lowest concentration of cloacaenodin for which growth (as assessed by the OD600) was inhibited.

[8] = test system: Enterobacter kobei MGH178
Procedure: as §1
(§2) Twelve (12) clinical isolates were tested at the Broad Institute of MIT and Harvard, with a subset of strains from BioProject PRJNA292902, BioProject PRJNA271899, BioProject PRJNA201976, and BioProject 219285. The strains were tested following the same spot-on-lawn assay protocol described above, but with BD Bacto Agar used instead. All cloacaenodin-treated isolates were incubated at 37° C. overnight, and the assay was repeated at least three times (on biological replicates) for each of the twelve (12) strains. We defined a strain to be susceptible if it was reliably susceptible in at least three biological replicates.

[9] = test system: Enterobacter hormaechei UCI35
Procedure: as §1, §2

[10] = test system: Enterobacter cloacae UCI102
Procedure: as §1, §2

[11] = test system: Enterobacter asburiae UCI193
Procedure: as §1, §2

[12] = test system: Enterobacter asburiae MGH243
Procedure: as §1, §2

[13] = test system: Enterobacter amnigenus ATCC 33072
Procedure: as §1

[14] = spot-on-lawn, M63 agar, purified cloacaenodin in water

CC[C@H](C)[C@@H]1NC(=O)[C@H](CCCNC(=N)N)NC(=O)[C@H](CC(=O)O)NC(=O)[C@H](C(C)C)NC(=O)[C@H](CO)NC(=O)[C@H](Cc2c[nH]cn2)NC(=O)CNC(=O)CC[C@@H](C(=O)N[C@@H](Cc2ccc(O)cc2)C(=O)N[C@@H](Cc2ccccc2)C(=O)NCC(=O)N2CCC[C@H]2C(=O)N2CCC[C@H]2C(=O)NCC(=O)N[C@@H](CC(C)C)C(=O)N2CCC[C@H]2C(=O)NCC(=O)N2CCC[C@H]2C(=O)N[C@H](C(=O)N[C@@H](CC(C)C)C(=O)N[C@@H](Cc2ccccc2)C(=O)N[C@@H](Cc2ccc(O)cc2)C(=O)N[C@@H](CO)C(=O)O)C(C)C)NC(=O)[C@@H]2CCCN2C1=O [cloacaenodin] (HELM PEPTIDE1{G.H.S.V.D.R.I.P.E.Y.F.G.P.P.G.L.P.G.P.V.L.F.Y.S}$PEPTIDE1,PEPTIDE1,1:R1-9:R3$$$V2.0; C-terminus assumed)
minimal inhibitory concentration (MIC) ([1]; six of the clinical isolates, three classified as carbapenem resistant): low micromolar
antimicrobial activity ([1]; the other clinical isolates of Table 7): either weak or no activity
strain susceptible to cloacaenodin ([2]; Lelliottia nimipressuralis DSM 18955): * Lelliottia nimipressuralis
antimicrobial activity (zones of inhibition) [2, 14]: zones of inhibition in the low micromolar range
antimicrobial activity (zones of inhibition) [3]: no observed activity
antimicrobial activity (zones of inhibition) [4]: no observed activity
antimicrobial activity (zones of inhibition) [5]: no observed activity
antimicrobial activity (zones of inhibition) [6]: no observed activity
MIC in M63 media [7]: (agar)/230 nM
MIC in M63 media [8]: 1 µM (≈ 2.58 µg/mL)
MIC in M63 media [9]: 1 µM (≈ 2.58 µg/mL)
MIC in M63 media [10]: 0.5 µM (≈ 1.29 µg/mL)
MIC in M63 media [11]: 2 µM (≈ 5.17 µg/mL)
strain susceptible to cloacaenodin ([11]; clinical strain UCI193, reliably susceptible in at least three biological replicates): * UCI193
MIC in M63 media [12]: 2 µM (≈ 5.17 µg/mL)
MIC in M63 media ([13]; ATCC 33072): 1.9 µM (≈ 4.91 µg/mL)
strain susceptible to cloacaenodin ([13]; Enterobacter amnigenus ATCC 33072): * Enterobacter amnigenus
antimicrobial activity (zones of inhibition) [13, 14]: zones of inhibition in the low micromolar range
